According to patent EP3771714A1, “NITROGEN-CONTAINING HETEROCYCLES AS PESTICIDES” (Bayer AG, priority 2019, dated 2021):
Several values for one entry are separate records, joined by “and”; a condition that tells them apart may be missing. Equal values may be shown once. Read-outs that look alike come from different tables or passages of the source.

Key:
Diabrotica balteata = Diabrotica balteata spray test; format: in vivo; settings: 500 g/ha (=160 µg/Kavität); wheat (Triticum aestivum) with beetle larvae; after 7 days; 100 % = all wheat plants grown as in untreated, uninfected control
Description: (§1) Zur Herstellung einer zweckmäßigen Wirkstoffzubereitung löst man 1 Gewichtsteil Wirkstoff mit den angegebenen Gewichtsteilen Lösungsmittel und füllt mit Wasser, welches eine Emulgatorkonzentration von 1000 ppm enthält, bis zum Erreichen der gewünschten Konzentration auf. Zur Herstellung weiterer Testkonzentrationen wird mit emulgatorhaltigem Wasser verdünnt.
Vorgequollene Weizenkörner (Triticum aestivum) werden in einer mit Agar und etwas Wasser gefüllten Multiwell-Platte für einen Tag inkubiert (5 Saatkörner pro Kavität). Die gekeimten Weizenkörner werden mit einer Wirkstoffzubereitung der gewünschten Konzentration gespritzt. Anschließend wird jede Kavität mit 10-20 Käferlarven von Diabrotica balteata infiziert.
Nach 7 Tagen wird die Wirkung in % bestimmt. Dabei bedeutet 100 %, dass alle Weizenpflanzen wie in der unbehandelten, nicht infizierten Kontrolle gewachsen sind; 0 % bedeutet, dass keine Weizenpflanze gewachsen ist.

[1] = logP determination by HPLC on reversed-phase (C18) columns, OECD Guideline 117; format: physicochemical
Description: Die Eichung erfolgt mit unverzweigten Alkan-2-onen (mit 3 bis 16 Kohlenstoffatomen), deren logP-Werte bekannt sind (Bestimmung der logP-Werte anhand der Retentionszeiten durch lineare Interpolation zwischen zwei aufeinander folgenden Alkanonen).

Myzus persicae [2] = test: Myzus persicae spray test; format: in vivo; settings: 100 g/ha; Chinese cabbage leaf discs (Brassica pekinensis), all stages; after 5 days
Description: Bei diesem Test zeigten z. B. die folgenden Verbindungen der Herstellungsbeispiele Wirkung von 100 % bei einer Aufwandmenge von 20 ppm: 1. Myzus persicae - Sprühtest
as §1
Chinakohlblattscheiben (Brassica pekinensis), die von allen Stadien der Grünen Pfirsichblattlaus (Myzus persicae) befallen sind, werden mit einer Wirkstoffzubereitung der gewünschten Konzentration gespritzt.
(§2) Nach 5 Tagen wird die Wirkung in % bestimmt. Dabei bedeutet 100 %, dass alle Blattläuse abgetötet wurden; 0 % bedeutet, dass keine Blattläuse abgetötet wurden.

Ctenocephalides felis = Ctenocephalides felis oral test; format: in vivo; settings: 100 ppm in citrated cattle blood; adult cat fleas; after 2 days
Procedure: Ctenocephalides felis - Oraltest
Zwecks Herstellung einer zweckmäßigen Wirkstoffzubereitung vermischt man 10 mg Wirkstoff mit 0,5 ml Dimethylsulfoxid. Durch Verdünnen mit citriertem Rinderblut erhält man die gewünschte Konzentration.
Ca. 20 nüchterne adulte Katzenflöhe (Ctenocephalides felis) werden in eine Kammer eingesetzt, die oben und unten mit Gaze verschlossen ist. Auf die Kammer wird ein Metallzylinder gestellt, dessen Unterseite mit Parafilm verschlossen ist. Der Zylinder enthält die Blut-Wirkstoffzubereitung, die von den Flöhen durch die Parafilmmembran aufgenommen werden kann.
Nach 2 Tagen wird die Abtötung in % bestimmt. Dabei bedeutet 100 %, dass alle Flöhe abgetötet wurden; 0 % bedeutet, dass keiner der Flöhe abgetötet wurde.

Nezara viridula = Nezara viridula spray test; format: in vivo; settings: 500 g/ha; barley plants (Hordeum vulgare) with larvae; after 4 days
Description: Bei diesem Test zeigten z. B. die folgenden Verbindungen der Herstellungsbeispiele Wirkung von 90 % bei einer Aufwandmenge von 100 g/ha: 1, 5, 6, 9. Nezara viridula -Sprühtest
as §1
Gerstenpflanzen (Hordeum vulgare), die mit Larven der Grünen Reiswanze (Nezara viridula) infiziert sind, werden mit einer Wirkstoffzubereitung der gewünschten Konzentration gespritzt.
Nach 4 Tagen wird die Wirkung in % bestimmt. Dabei bedeutet 100 %, dass alle Reiswanzen abgetötet wurden; 0 % bedeutet, dass keine Reiswanzen abgetötet wurden.

Phaedon cochleariae = Phaedon cochleariae spray test; format: in vivo; settings: 500 g/ha; Chinese cabbage leaf discs (Brassica pekinensis), larvae; after 7 days
Description: Bei diesem Test zeigten z. B. die folgenden Verbindungen der Herstellungsbeispiele Wirkung von 100 % bei einer Aufwandmenge von 500 g/ha: 1. Phaedon cochleariae - Sprühtest
as §1
Chinakohlblattscheiben (Brassica pekinensis) werden mit einer Wirkstoffzubereitung der gewünschten Konzentration gespritzt und nach dem Abtrocknen mit Larven des Meerrettichblattkäfers (Phaedon cochleariae) besetzt.
Nach 7 Tagen wird die Wirkung in % bestimmt. Dabei bedeutet 100 %, dass alle Käferlarven abgetötet wurden; 0 % bedeutet, dass keine Käferlarven abgetötet wurden.

Tetranychus urticae = Tetranychus urticae spray test, OP-resistant; format: in vivo; settings: 500 g/ha; bean leaf discs (Phaseolus vulgaris), all stages, OP-resistent; after 6 days
Description: Bei diesem Test zeigten z. B. die folgenden Verbindungen der Herstellungsbeispiele Wirkung von 100 % bei einer Aufwandmenge von 500 g/ha: 1. Tetranychus urticae - Sprühtest, OP-resistent
as §1
Bohnenblattscheiben (Phaseolus vulgaris), die von allen Stadien der Gemeinen Spinnmilbe (Tetranychus urticae) befallen sind, werden mit einer Wirkstoffzubereitung der gewünschten Konzentration gespritzt.
Nach 6 Tagen wird die Wirkung in % bestimmt. Dabei bedeutet 100 %, dass alle Spinnmilben abgetötet wurden; 0 % bedeutet, dass keine Spinnmilben abgetötet wurden.

Myzus persicae [3] = test: Myzus persicae oral test; format: in vivo; settings: 20 ppm; mixed population, uptake through Parafilm; after 5 days
Procedure: Bei diesem Test zeigten z. B. die folgenden Verbindungen der Herstellungsbeispiele Wirkung von 100 % bei einer Aufwandmenge von 500 g/ha (=160 µg/Kavität): 1, 2, 3, 5, 6, 7, 8, 9, 10, 11, 12. Myzus persicae - Oraltest
Zur Herstellung einer zweckmäßigen Wirkstoffzubereitung löst man 1 Gewichtsteil Wirkstoff mit den angegebenen Gewichtsteilen Lösungsmittel und füllt mit Wasser bis zum Erreichen der gewünschten Konzentration auf.
50 µl der Wirkstoffzubereitung werden in Mikrotiterplatten überführt und mit 150µl IPL41Insektenmedium (33% + 15% Zucker) auf eine Endvolumen von 200 µl aufgefüllt. Anschließend werden die Platten mit Parafilm verschlossen, durch den eine gemischte Population der Grünen Pfirsichblattlaus (Myzus persicae), die sich in einer zweiten Mikrotiterplatte befindet, hindurchstechen und die Lösung aufnehmen kann.
as §2

Nilaparvata lugens = Nilaparvata lugens test; format: in vivo; settings: 500 g/ha; rice plants (Oryza sativa); after 4 days
Description: Bei diesem Test zeigten z. B. die folgenden Verbindungen der Herstellungsbeispiele Wirkung von 90 % bei einer Aufwandmenge von 500 g/ha: 1. Nilaparvata lugens -Test
as §1
Reispflanzen (Oryza sativa) werden mit der Wirkstoffzubereitung der gewünschten Konzentration gespritzt und anschließend mit der Braunrückigen Reiszikade (Nilaparvata lugens) infiziert.
Nach 4 Tagen wird die Wirkung in % bestimmt. Dabei bedeutet 100 %, dass alle Reiszikaden abgetötet wurden; 0 % bedeutet, dass keine Reiszikaden abgetötet wurden.

[4] = HPLC-MS/UPLC-MS neutral (method [b], pH 7,8)
[5] = pH 7.8, HPLC-MS/UPLC-MS neutral (method [b], pH 7,8), read-out: LogP-Wert
[6] = HPLC-MS (ESI-positiv), acidic or neutral range not given
[7] = reversed-phase (C18) HPLC column, HPLC-MS (ESI-positiv), acidic or neutral range not given, read-out: LogP-Wert

FC(F)(F)c1ccc(-n2ccccc2=Nc2nc(C(F)(F)C(F)(F)F)cs2)cn1 [Beispiel 7]
Wirkung in % (Diabrotica balteata): 100% | chromatographic logP ([1]; pH 2.7, LogP-Wert (HCOOH)): 4.03

FC(F)(F)c1ccc(-n2ccccc2=Nc2nc(C3(F)CC3)cs2)cn1 [Beispiel 9]
Wirkung in % (Myzus persicae [2]): 90% | Wirkung in % (Diabrotica balteata): 100% | chromatographic logP ([1]; pH 2.7, LogP-Wert (HCOOH)): 2.04

N=C(N=c1ccccn1-c1ccc(C(F)(F)F)nc1)SCC(=O)C(F)(F)F [N-[1-[(6-trifluormethyl-3-pyridyl)]-2-pyridyliden]-imidothio-(3,3,3-trifluoro-2-oxopropyl)-ester]
LogP-Wert [1, 4]: 2,39 | chromatographic logP [1, 5]: 2.37

NC(=S)N=c1ccccn1-c1ccc(C(F)(F)F)nc1 [VII-1, N-[1-[(6-Trifluormethyl-3-pyridinyl)]-2(1H)-pyridinyliden]-thioharnstoff]
LogP-Wert [1, 6]: 1,12 and 1,14

FC(F)(F)c1ccc(-n2ccccc2=Nc2ncccn2)cn1 [Beispiel 4, 1-[(6-Trifluormethyl-3-pyridyl]-N-(pyrimid-2-yl))pyridin-2-imin]
LogP-Wert [1, 6]: LogP-Wert = 1,38

NC(=S)N=c1ccccn1-c1ccc(C(F)F)nc1 [VII-2, N-[1-[(6-Difluormethyl-3-pyridinyl)]-2(1H)-pyridinyliden]-thioharnstoff]
chromatographic logP ([1]; pH 7.8, LogP-Wert): 0.7

N#CC1(c2csc(N=c3ccccn3-c3ccc(C(F)(F)F)nc3)n2)CC1 [Beispiel 8]
Wirkung in % (Myzus persicae [2]): 100% | Wirkung in % (Diabrotica balteata): 100% | chromatographic logP ([1]; pH 2.7, LogP-Wert (HCOOH)): 2.39

FC(F)c1ccc(-n2ccccc2=Nc2nc(C3(F)CC3)cs2)cn1 [Beispiel 2]
Wirkung in % (Diabrotica balteata): 100% | LogP-Wert [1, 4]: LogP-Wert = 3,02

FC(F)c1ccc(-n2ccccc2=S)cn1 [II-2, 6'-Difluormethyl-[1(2H), 3'-bipyridin]-2-thion]
LogP-Wert [1]: 1,23 | chromatographic logP ([1]; LogP-Wert): 1.18

CCc1csc(N=c2ccccn2-c2ccc(C(F)(F)F)nc2)n1 [Beispiel 5]
Wirkung in % (Myzus persicae [2]): 90% | Wirkung in % (Diabrotica balteata): 100% | chromatographic logP ([1]; pH 2.7, LogP-Wert (HCOOH)): 1.13

CCOC(=O)NC(=S)N=c1ccccn1-c1ccc(C(F)F)nc1 [VI-2, Ethyl N-[1-[(6-difluormethyl-3-pyridyl)]-2-pyridylidene]carbamothioylcarbamat]
chromatographic logP ([1]; pH 7.8, LogP-Wert): 1.28

N=c1ccccn1-c1ccc(C(F)(F)F)nc1 [IV-1, 6'-Trifluormethyl-[1(2H), 3'-bipyridin]-2-imin-hydrogeniodid]
chromatographic logP [1, 7]: 2.17

FC(F)(F)c1ccc(-n2ccccc2=S)cn1 [II-1, 6'-Trifluormethyl-[1(2H), 3'-bipyridin]-2-thion]
chromatographic logP [1, 5]: 1.67

CSc1cccc[n+]1-c1ccc(C(F)(F)F)nc1 [III-1]
chromatographic logP [1, 7]: 0.57

FC(F)(F)c1ccc(-n2ccccc2=Nc2nc(C(F)(F)F)cs2)cn1 [Beispiel 3, 1-[(6-Trifluormethyl-3-pyridyl]-N-(4-trifluormethylthiazol-2-yl))pyridin-2-imin]
Wirkung in % (Myzus persicae [2]): 100% | Wirkung in % (Diabrotica balteata): 100% | LogP-Wert [1, 6]: LogP-Wert = 3,60

CSc1cccc[n+]1-c1ccc(C(F)F)nc1 [III-2]
chromatographic logP ([1]; LogP-Wert): 0.04

CC1(c2csc(N=c3ccccn3-c3ccc(C(F)(F)F)nc3)n2)CC1 [Beispiel 10]
Wirkung in % (Diabrotica balteata): 100% | chromatographic logP ([1]; pH 7.8, LogP-Wert (neutral)): 3.99

CC(C)(C)c1csc(N=c2ccccn2-c2ccc(C(F)(F)F)nc2)n1 [Beispiel 11]
Wirkung in % (Diabrotica balteata): 100% | chromatographic logP ([1]; pH 2.7, LogP-Wert (HCOOH)): 1.47

Cc1csc(N=c2ccccn2-c2ccc(C(F)(F)F)nc2)n1 [Beispiel 1]
Abtötung in % (Wirkung) (Ctenocephalides felis): 80% | Wirkung in % (Myzus persicae [2]): 90% | Wirkung in % (Nezara viridula): 90% | Wirkung in % (Diabrotica balteata): 100% | Wirkung in % (Phaedon cochleariae): 100% | Wirkung in % (Tetranychus urticae): 90% | Wirkung in % (Myzus persicae [3]): 100% | LogP-Wert [1, 6]: LogP-Wert = 1,08 | Wirkung in % (Nilaparvata lugens): 100%

CCOC(=O)NC(=S)N=c1ccccn1-c1ccc(C(F)(F)F)nc1 [VI-1, Ethyl N-[1-[(6-trifluormethyl-3-pyridyl)]-2-pyridylidene]carbamothioylcarbamat]
chromatographic logP ([1]; pH 7.8, LogP-Wert): 1.71

N#CC1(c2csc(N=c3ccccn3-c3ccc(C(F)F)nc3)n2)CC1 [Beispiel 12]
Wirkung in % (Diabrotica balteata): 100% | chromatographic logP ([1]; pH 7.8, LogP-Wert (neutral)): 2.65

FC(F)(F)c1ccc(-n2ccccc2=Nc2nc(C3CC3)cs2)cn1 [Beispiel 6]
Wirkung in % (Myzus persicae [2]): 90% | Wirkung in % (Diabrotica balteata): 100% | chromatographic logP ([1]; pH 2.7, LogP-Wert (HCOOH)): 1.34
